Assay: Colour development of iron source when added to water or other aqueous solutions
Type: physicochemical
Text: Such a color can change the color appearance the food or beverage to which FERROCHEL has been added. In the case of many foods and beverages, this color change would be unacceptable.

## NCC(=O)[O-].NCC(=O)[O-].[Fe+2] [FERROCHEL]
  Colour imparted when added to water: imparts relatively quickly a deep rusty yellow color

— patent US7279187B2, “Mineral fortification systems” (The Procter & Gamble Company, priority 2003, dated 2007)
